Test results: PMC11590367, “Characterization of novel small molecule inhibitors of estrogen receptor-activation function 2 (ER-AF2)” (Breast Cancer Research : BCR, 2024)

T1: ER-LBD (residues 298–554), recombinant, N-terminal His-tag (UniProt P03372 298-554, red fluorescent dye (Protein Labeling Kit RED-NHS 2nd Generation))
T1 construct: Kept with 20 µM E2 in lysis and assay buffers; also called recombinant ER-LBD; source: E. coli (BL21-DE3) with pRARE, purified (Ni-NTA, size exclusion s75), 50 µM E2 added during expression
T1 sequence (looked up): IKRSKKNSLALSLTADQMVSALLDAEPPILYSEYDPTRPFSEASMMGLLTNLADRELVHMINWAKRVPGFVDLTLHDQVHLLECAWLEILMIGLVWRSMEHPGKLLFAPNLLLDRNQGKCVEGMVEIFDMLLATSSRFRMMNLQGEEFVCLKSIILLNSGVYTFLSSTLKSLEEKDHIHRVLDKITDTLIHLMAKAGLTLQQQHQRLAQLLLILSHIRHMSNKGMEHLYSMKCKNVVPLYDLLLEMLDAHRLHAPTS

B1: coactivator peptide PGC1α (control peptide of the MST assay) (peptide)
chain: EAEEPSLLKKLLLAPANTQ

Key:
TamR3 cells = test: PrestoBlue viability assay, TamR3; assay type: cell-based; conditions: 1 nM E2, 72 h treatment, ± SD of 3 biological replicates
Procedure: (§1) T47D, MCF7, TamR3, and MDA-MB-231 cells were starved for 72 h and then seeded into black clear-bottom 96-well plates (Corning Life Sciences Cat#3904) at 20,000 cells/well (T47D, MCF7, TamR3) or 5,000 cells/well (MDA-MB-231). […] 20 µl of PrestoBlue Cell Viability Reagent (Thermo Fisher A13262) was added to each well and incubated at 37 °C for 1 h. Fluorescence intensity was measured using the TECAN F500 plate reader with emission and excitation wavelengths of […], respectively.

T47D cells = test: PrestoBlue viability assay, T47D; assay type: cell-based; conditions: 1 nM E2, 72 h treatment, ± SD of 3 biological replicates
Procedure: as §1

[1] = Precipitation in MST assay buffer; assay type: physicochemical; conditions: 2% DMSO, 0.03 to 1000 µM
Procedure: MST was used to validate the direct binding and measure the binding affinities between the lead compounds and the recombinant ER-LBD. ER-LBD was labeled with red fluorescent dye using a Protein Labeling Kit RED-NHS 2nd Generation (Nanotemper MO-L011) according to the manufacturer’s protocol. The compounds were serially diluted 1:2 in 100% DMSO from 50 to 0.0015 mM, then added to 10 nM of labeled ER protein in the assay buffer (25 mM Tris, pH 8.4, 150 mM NaCl, 20 µM E2, 0.1 mM PMSF, 0.05% Tween20) at final concentrations of 0.03 to 1000 µM. Recombinant proteins in cell free assays are not affected by DMSO concentrations up to 10%. A final concentration of 2% DMSO was chosen for MST as the compounds required this concentration to be soluble in the assay buffer. […] The corresponding data points were removed from the analysis. […] Each protein/compound mixture was then loaded into Monolith Premium Capillaries (Nanotemper MO-K025). All assays were conducted with medium MST power and 20% excitation power. Data analysis and Kd estimation were performed with the MO Affinity Analysis software from Nanotemper.

MDA-MB-231 cells = test: PrestoBlue viability assay, MDA-MB-231; assay type: cell-based; conditions: dose response 50 to 0.01 µM, 1 nM E2
Procedure: as §1

[2] = system: ER transcriptional activity in T47D-KBluc cells; test: Luciferase transcriptional assay; assay type: cell-based; conditions: ER transcription, luciferase reporter, 1 nM E2, 24 h treatment, ± SD of 3 biological replicates
Procedure: T47D-KBluc cells or PC3m-luc cells were starved for 72 h and then seeded into 96-well plates at 20,000 or 5,000 cells/well, respectively. […] One day post-treatment, the media was removed, and cells were lysed with 65 µl of 1x passive lysis buffer (Promega #E1910). Following two freeze-thaw cycles, 20 µl of lysate were transferred to a white, 96-well flat bottom plate (Corning Life Sciences Cat#3912). 50 µl of luciferase reagent (Promega. Luciferase Assay System E1500) was added to each well, and luminescence was measured using the TECAN M200 Pro plate reader. E2 (1 nM), 4-hydroxytamoxifen (OHT) (4 nM), and DMSO (0.2%) were used as controls for this assay. […] E2 alone represented 100% transcriptional activation, while the 0.2% DMSO control represented 0% transcriptional activity. OHT was used as a positive control for an active compound.

MCF7 cells = test: PrestoBlue viability assay, MCF7; assay type: cell-based; conditions: Homo sapiens, 1 nM E2, 72 h treatment, ± SD of 3 biological replicates
Procedure: as §1

[3] = set-up: method as in earlier work; conditions: cited from earlier work
ER D538G/F404L mutant = ER D538G/F404L mutant (Homo sapiens, UniProt P03372, D538G/F404L); test: Transcriptional activity of fulvestrant resistant mutant ER; assay type: cell-based; conditions: compared to DMSO
[4] = set-up: method as in earlier work; conditions: cited from earlier work; remark: listed apart in the source
[5] = system: ER target genes (cyclinD1, CDC2, E2F, PR, pS2) in TamR3 cells; test: Real-time PCR of ER target genes, TamR3; assay type: cell-based; conditions: 1 µM Tamoxifen
Procedure: Total RNA was extracted using TRIzol, 72 h post-treatment. cDNA synthesis was conducted using the Maxima First Strand cDNA Synthesis Kit for RT-qPCR (Thermo K1641) according to the manufacturer’s protocol. RT-PCR was conducted on the QuantStudio 7 Pro instrument and expression fold change was calculated using 2−ΔΔCt method normalized to 18s.

[6] = target: T2, recombinant ER-LBD (residues 298–554) (Homo sapiens, UniProt P03372); test: Microscale thermophoresis (MST) direct binding; conditions: averaged from three independent assays, 20 µM E2 in buffer, read-out: Kd (binding affinity to ER-LBD)
T2 construct: The ER-LBD (residues 298–554) was cloned into pET28a bacterial expression plasmid; His-tag (N); made in house; host or cells: E. coli BL21-DE3 (with pRARE)
Procedure: The ER-LBD (residues 298–554) was cloned into pET28a bacterial expression plasmid with an N-terminal His-tag. pET28a-His-ER and pRARE were transformed into E. coli (BL21-DE3). Bacteria were grown at 37 [drawing 1] C overnight, and then diluted 1:20 the following day in LB media and grown at 37 [drawing 2] C until the OD600 reached 0.5. Protein expression was induced with 1 mM IPTG, and 50 µM E2 was added to the media. Cells were then grown for 5 h at 25 °C. Bacterial pellets were collected by centrifugation at 13,000 rpm for 7 min. Pellets were resuspended in lysis buffer (25 mM Tris, pH 8.4, 150 mM NaCl, 20 µM E2, 1 mM DTT, 0.1 mM PMSF, cOmplete protease inhibitor (Roche)) then sonicated and centrifuged to obtain the soluble extracts. ER-LBD was purified using affinity chromatography with Ni-NTA agarose resin. The presence of the ER-LBD in eluted fractions was confirmed by SDS-PAGE and validated by mass spectrometry. The eluted protein was further purified by size exclusion chromatography (s75), and fractions containing the ER-LBD protein were pooled and concentrated using Amicon Ultra centrifugal filters (3 K MWCO).
MST was used to validate the direct binding and measure the binding affinities between the lead compounds and the recombinant ER-LBD. […]

[7] = target: T3, ER-LBD AF2 site / PGC1a coactivator peptide (Homo sapiens, UniProt P03372); test: TR-FRET coactivator peptide displacement (LanthaScreen ER alpha Coactivator Assay); assay type: binding; conditions: 4 nM E2, 4 h
T3 construct: The assay utilizes GST-tagged ER-LBD (final concentration, 7.3 nM); purchased Thermo Fisher A15885
Procedure: We performed a TR-FRET assay to assess whether compounds displace the AF2 peptide from the ER-AF2 pocket using the LanthaScreen TR-FRET ER alpha Coactivator Assay Kit (Thermo Fisher, A15885). The assay utilizes GST-tagged ER-LBD (final concentration, 7.3 nM), terbium-labeled GST-antibody (final concentration, 5 nM), and a fluorescein-coactivator peptide, PGC1a (final concentration, 250 nM) in the presence of 4 nM E2. The GST-antibody, ER protein and fluorescent peptide mixture was incubated with four concentrations of compound (500 µM, 167 µM, 56 µM, 18.5 µM) for 4 h. The sample was excited at 340 nm and read at 520 nm on a Syngergy Neo2 plate reader (BioTek).

[8] = target: T4, full length ERɑ protein, estrogen binding site (EBS) (Homo sapiens, UniProt P03372); test: E2-displacement assay (PolarScreen fluorescence polarization); conditions: fluorescence polarization, 1, 10 and 50 µM
T4 construct: full length ERɑ protein was incubated with Fluormone ES2 Green; purchased ThermoFisher A15882
Procedure: The E2 displacement assay was performed using the PolarScreen Estrogen Receptor Alpha Competitor Assay, Green (ThermoFisher A15882) according to the manufacturer’s protocol. In brief, full length ERɑ protein was incubated with Fluormone ES2 Green (Fluormone Tracer) in the ES2 screening buffer in a black bottom 384-well plate (Corning 3573) in the presence of either 1, 10, or 50 µM of test compounds. The final concentrations in the assay were 2% DMSO (consistent with the MST assay), 4.5 nM fluormone, and 40 nM ERɑ protein. 20 µl of the mixture were added to each well, with triplicates performed for each condition. The plate was incubated in the dark at room temperature for 4 h before fluorescence polarization was measured using a Synergy Neo2 plate reader (BioTek).

[9] = target: T1, ER-LBD (residues 298–554), recombinant, …; test: MST; 10 nM RED-NHS labelled ER-LBD, ligand titrated; 25 mM Tris pH 8.4, 150 mM NaCl, 20 µM E2, 0.1 mM PMSF, 0.05% Tween20; medium MST power, 20% excitation power; Kd averaged from three independent assays; conditions: both partners purified

T4 sequence (P03372 whole entry): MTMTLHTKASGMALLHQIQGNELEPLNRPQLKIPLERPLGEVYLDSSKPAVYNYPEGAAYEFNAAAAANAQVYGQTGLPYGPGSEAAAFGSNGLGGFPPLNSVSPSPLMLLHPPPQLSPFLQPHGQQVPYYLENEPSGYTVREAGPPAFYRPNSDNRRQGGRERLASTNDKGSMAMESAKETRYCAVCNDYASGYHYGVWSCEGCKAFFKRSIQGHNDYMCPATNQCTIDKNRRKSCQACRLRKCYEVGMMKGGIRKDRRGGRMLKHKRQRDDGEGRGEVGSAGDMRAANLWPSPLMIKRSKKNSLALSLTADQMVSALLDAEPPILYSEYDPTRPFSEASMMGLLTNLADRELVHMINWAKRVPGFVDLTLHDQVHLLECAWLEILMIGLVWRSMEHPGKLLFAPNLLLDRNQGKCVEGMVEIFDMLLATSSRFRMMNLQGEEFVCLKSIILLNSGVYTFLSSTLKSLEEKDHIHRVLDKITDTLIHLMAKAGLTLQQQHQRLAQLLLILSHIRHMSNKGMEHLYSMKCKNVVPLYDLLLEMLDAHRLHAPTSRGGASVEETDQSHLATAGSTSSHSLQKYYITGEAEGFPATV
ER D538G/F404L mutant, sequence (P03372 whole entry F404L/D538G): as the sequence (P03372 whole entry) above, with F404L, D538G counted along it

| Molecule | IC50 (TamR3 cells) | IC50 (T47D cells; Homo sapiens, T47D, 72 h) | Precipitation after addition of ER protein [1] | IC50 ([2]; 24 h) | IC50 (MCF7 cells) | further results |
| --- | --- | --- | --- | --- | --- | --- |
| Cc1cccn2c(CNCc3ccc(F)cc3F)cnc12 [VPC-260711] | 16.8 ± 2.07 µM | 5.4 ± 1.23 µM | exhibited precipitation at 1000 and 500 µM | 6.4 µM | 18 ± 1.3 µM | Effect on viability of ER-negative MDA-MB-231 cells (MDA-MB-231 cells): minimal impact; IC50 [2]: 6.36 ± 0.59 µM |
| C[C@]12CC[C@@H]3c4ccc(O)cc4C[C@@H](CCCCCCCCC[S+]([O-])CCCC(F)(F)C(F)(F)F)[C@H]3[C@@H]1CC[C@@H]2O (stereo partly drawn) [fulvestrant] |  |  |  |  |  | Solubility [3]: poor solubility; Transcriptional activity of mutant ER D538G/F404L (ER D538G/F404L mutant): increased the transcriptional activity; Oral bioavailability [4]: not orally bioavailable |
| Cc1cccn2c(CNCc3cccc(NC(=O)[C@@H]4CCCO4)c3)cnc12 [VPC-260962] | 27.8 ± 7.99 µM | 8.9 µM |  | 10.8 µM | 16.4 ± 3.59 µM | IC50 (T47D cells): 8.92 ± 2.81 µM; Effect on viability of ER-negative MDA-MB-231 cells (MDA-MB-231 cells): minimal impact; IC50 [2]: 10.8 ± 2.92 µM |
| O=C(Nc1cccc(CNCc2cnc3ccccn23)c1)C1CCCO1 (stereo not drawn) [VPC-260961] | 18.7 ± 1.15 µM |  |  | 7.26 ± 0.73 µM | 18.7 ± 1.18 µM |  |
| Cc1cccn2c(CNCc3cccc(Br)c3)cnc12 [VPC-260726] | 13.9 ± 1.84 µM | 11.2 ± 5.67 µM |  | 17.9 ± 3.51 µM | 16.6 ± 1.47 µM |  |
| Cc1cccc(Oc2ccc(NC(=O)N3CCC(c4nnc[nH]4)C3)cn2)c1C (stereo not drawn) [VPC-260955] | 28.7 ± 1.3 µM | 18.6 ± 1.13 µM | exhibited precipitation at 1000 and 500 µM | 17.4 ± 1.12 µM |  |  |
| Cc1cccn2c(CNCc3cccc(NC(=O)[C@H]4CCCO4)c3)cnc12 [VPC-260963] | 16.2 ± 3.38 µM | 19 ± 5.66 µM |  | 11.9 ± 3.62 µM | 21.1 ± 4.67 µM |  |
| CCNC(=O)c1cccc(CNCc2cnc3c(C)cccn23)c1 [VPC-260709] |  | 6.37 ± 3.3 µM | exhibited precipitation at 1000 and 500 µM | 13.8 ± 2.92 µM |  |  |
| CC/C(=C(\c1ccccc1)c1ccc(OCCN(C)C)cc1)c1ccccc1 [Tamoxifen, tamoxifen, reference compound] |  |  |  |  |  | ER target gene expression in TamR3, tamoxifen alone [5]: increased target gene expression |
| O=C(NCc1ccc2occc2c1)Nc1ccc(OCC2CCCO2)cc1 (stereo not drawn) [VPC-260936] | 21.8 ± 6.51 µM | 10.6 ± 4.27 µM | exhibited precipitation at 1000 and 500 µM | 27.2 ± 6.44 µM |  |  |
| Cc1cccc(Oc2ccc(NC(=O)N[C@H]3C[C@H](CO)C3)cn2)c1C [VPC-260927] | 24.4 ± 2.48 µM | 13.8 ± 4.23 µM |  | 10.8 ± 3.85 µM | 19.5 ± 2.16 µM | Kd [6]: 13.2 ± 10.5 µM; Concentration at which a reduction of the FRET signal (PGC1⍺ peptide displacement) was observed [7]: 500 µM; Displacement of fluormone (fluorescent E2) from EBS [8]: displaces the fluormone at 1, 10 and 50 µM |
| CC1CC(NC(=O)Nc2ccc(Oc3cccc(F)c3F)nc2)C(=O)N1c1cnn(C)c1 (stereo not drawn) [VPC-260950] | 21.4 ± 3.66 µM | 16 ± 6.53 µM |  | 12.4 ± 4.57 µM |  |  |
| B1 |  |  |  |  |  | Kd [9]: 16.6 ± 2.4 µM |
